Assay results reported in patent US10800758B2, “Pyrimidine compound” (OTSUKA PHARMACEUTICAL CO., LTD., priority 2017, dated 2020).

Experiments:
Assay type in all cases: in vivo
DBA/2 mice = assay: Audiogenic seizure model; details: Mus musculus; male and female DBA/2 mice, 30 mg/kg oral, auditory stimulation 1 hour after administration; read-out: Seizure suppression rate (%)
Protocol: The animal model used in this test is a phenotype model for partial seizure (including secondary generalized seizure) and generalized tonic-clonic seizure, and has high clinical predictability. This test was performed in accordance with the report of De Sarro et al (Br J Pharmacol. 1988 February; 93(2): 247-56. Anticonvulsant effects of some calcium entry blockers in DBA/2 mice. De Sarro G B, Meldrum B S, Nistico G.).
In this test example, the example compounds shown in Table 3 below were used as test compounds. The following compound (compound of Example 5 of WO 2004/009559), which is the most similar compound when the substituent position is taken into consideration, was used as a comparative example compound.
The test compounds were suspended in 5% gum arabic/distilled water (w/v), and administered by forced oral administration to male and female DBA/2 mice (Japan SLC, Inc., 3 weeks old, 8 per group) at a dose of 30 mg/kg. After one hour of the oral administration of the test compound, each mouse was placed in a transparent acrylic cylinder 30 cm high and 23 cm in diameter, and 30 seconds were allowed for habituation. Then, they were exposed to auditory stimulation (12.6 kHz, 100-110 dB) for 1 minute or until a tonic seizure occurred.
The seizure response was assessed using the following scale, 0: no seizure, 1: wild running, 2: clonic seizure, 3: tonic seizure and 4: respiratory arrest. The maximum response was recorded as the seizure severity score.
The seizure suppression rate for each compound administration group was calculated according to the following formula.

ICR mice [1] = assay: Maximal electroshock seizure (MES) model; details: Mus musculus; male ICR mice, 30 mg/kg oral, electrical stimulation (30 mA, 100 Hz, 0.2 second) 1 hour after administration; read-out: rate of seizure suppression (tonic hindlimb extension seizure)
Protocol: This test is performed to evaluate the anticonvulsant activity of the compound. The mouse model used in this test is a phenotype model of generalized tonic-clonic seizure and secondary generalized partial seizure. This test was performed in accordance with the report of AJ Hill et al (Br J Pharmacol. 2012 December; 167(8): 1629-42. Cannabidivarin is anticonvulsant in mouse and rat, Hill A J, et al.).
The test compound was suspended in 5% gum arabic/distilled water (w/v), and administered by forced oral administration to male ICR mice (Japan SLC, Inc., 5 to 6 weeks old, 8 per group) at a dose of 30 mg/kg. After one hour of the oral administration of the test compound, the mice were stimulated by an application of electrical current (30 mA, 100 Hz, 0.2 second) through auricular electrodes using an electroconvulsive device (UGO BASILE SRL). Then, the incidence of tonic hindlimb extension seizure was recorded. In this test, tonic hindlimb extension seizures were induced in all mice of the solvent administration group, but the rate of seizure suppression was 75% or more with the example compounds 1, 2, 3, 5, 8, 10, 12, 13, 14, 16, 18, 22, 26, 28, 30, 31, 38, 42, 47, 48 and 54, and the suppression rate was 50% or more with the example compounds 4, 6, 9, 11, 23, 41 and 45.

ICR mice [2] = assay: Subcutaneous pentylenetetrazole (scPTZ) model; details: Mus musculus; male ICR mice, 30 mg/kg oral, 85 mg/kg pentylenetetrazole s.c. after 1 hour, evaluated for 30 minutes; read-out: rate of suppression against clonic convulsions
Protocol: This test is performed to evaluate the anticonvulsant activity of the compound as in Test Example 2. Unlike the phenotype of Test Example 2, the animal model used in this test is a phenotype model of generalized absence seizure and myoclonic seizure.
The test compound was suspended in 5% gum arabic/distilled water (w/v), and administered by forced oral administration to male ICR mice (Japan SLC, Inc., 5 to 6 weeks old, 10 per group) at a dose of 30 mg/kg. After 1 hour, 85 mg/kg of pentylenetetrazole dissolved in saline was administered subcutaneously, and the occurrence of clonic convulsions was evaluated for 30 minutes.

| SMILES | inhibition in vivo at 30 mg/kg (DBA/2 mice) [%] | responders at 30 mg/kg (ICR mice [1]) [%] | responders at 30 mg/kg (ICR mice [2]) [%] |
| --- | --- | --- | --- |
| C#Cc1cccc(Oc2ncc(N3CCC(=O)NC3=O)cn2)c1 [Example 28] | 100 | ≥ 75 | ≥ 75 |
| O=C1CCN(c2cnc(Oc3cccc(OC(F)(F)F)c3)nc2)C(=O)N1 [Example 10] | 86 | ≥ 75 | – |
| Cc1ccc(F)cc1Oc1ncc(N2CCC(=O)NC2=O)cn1 [Example 38] | 100 | ≥ 75 | – |
| O=C1CCN(c2cnc(Oc3c(F)cccc3F)nc2)C(=O)N1 [Example 13] | 100 | ≥ 75 | ≥ 75 |
| O=C1CCN(c2cnc(Oc3cccc(S(F)(F)(F)(F)F)c3)nc2)C(=O)N1 [Example 24] | 90 | – | – |
| COc1nc(Oc2ccc(F)cc2)ncc1N1CCC(=O)NC1=O [Example 48] | 96 | ≥ 75 | – |
| C#Cc1ccc(Oc2ncc(N3CCC(=O)NC3=O)cn2)cc1 [Example 50] | 82 | – | – |
| COc1nc(Oc2cc(F)cc(F)c2)ncc1N1CCC(=O)NC1=O [Example 54] | 93 | ≥ 75 | – |
| O=C1CCN(c2cnc(-c3ccccc3)nc2)C(=O)N1 [Example 30] | 97 | ≥ 75 | – |
| COc1nc(Oc2cccc(F)c2)ncc1N1CCC(=O)NC1=O [Example 42] | 96 | ≥ 75 | ≥ 50 |
| CCc1cccc(Oc2ncc(N3CCC(=O)NC3=O)cn2)c1 [Example 7, 1-[2-(3-Ethylphenoxy)pyrimidin-5-yl]-5,6-dihydropyrimidine-2,4(1H,3H)-dione] | 88 | – | – |
| O=C1CCN(c2cnc(Oc3cc(F)cc(F)c3)nc2)C(=O)N1 [Example 14] | 92 | ≥ 75 | ≥ 75 |
| O=C1CCN(c2ccccc2)C(=O)N1 [Comparative Example, reference compound] | 27 | – | – |
| [2H]C([2H])([2H])Oc1cccc(Oc2ncc(N3CCC(=O)NC3=O)cn2)c1 [Example 25] | 89 | – | – |
| O=C1CCN(c2cnc(Oc3cccc(C(F)(F)F)c3)nc2)C(=O)N1 [Example 9] | 94 | ≥ 50 | – |
| O=C1CCN(c2cnc(Oc3ccc(F)cc3F)nc2)C(=O)N1 [Example 12] | 96 | ≥ 75 | ≥ 50 |
| COc1cccc(Oc2ncc(N3CCC(=O)NC3=O)cn2)c1 [Example 21] | 93 | – | – |
| COc1nc(Oc2c(F)cccc2F)ncc1N1CCC(=O)NC1=O [Example 52] | 93 | – | – |
| COc1nc(Oc2ccc(F)cc2F)ncc1N1CCC(=O)NC1=O [Example 53] | 83 | – | – |
| CN1C(=O)CCN(c2cnc(Oc3cccc(F)c3)nc2)C1=O [Example 5, 1-[2-(3-Fluorophenoxy)pyrimidin-5-yl]-3-methyl-5,6-dihydropyrimidine-2,4(1H,3H)-dione] | 100 | ≥ 75 | ≥ 75 |
| O=c1ccn(-c2cnc(Oc3cccc(F)c3)nc2)c(=O)[nH]1 [Example 41] | 96 | ≥ 50 | ≥ 50 |

| SMILES | inhibition in vivo at 30 mg/kg (DBA/2 mice) [%] | responders at 30 mg/kg (ICR mice [1]) [%] | responders at 30 mg/kg (ICR mice [2]) [%] |
| --- | --- | --- | --- |
| O=C1CCN(c2cnc(Sc3ccccc3)nc2)C(=O)N1 [Example 8, 1-[2-(Phenylthio)pyrimidin-5-yl]-5,6-dihydropyrimidine-2,4(1H,3H)-dione] | 100 | ≥ 75 | – |
| O=C1CCN(c2cnc(Oc3ccccc3F)nc2)C(=O)N1 [Example 2, 1-[2-(2-Fluorophenoxy)pyrimidin-5-yl]-5,6-dihydropyrimidine-2,4(1H,3H)-dione] | 100 | ≥ 75 | ≥ 75 |
| O=C1CCN(c2cnc(Oc3ccccc3)nc2)C(=O)N1 [Example 1, 1-(2-Phenoxypyrimidin-5-yl)-5,6-dihydropyrimidine-2,4(1H,3H)-dione] | 100 | ≥ 75 | ≥ 75 |
| O=C1CCN(c2cnc(Oc3cccc(SC(F)(F)F)c3)nc2)C(=O)N1 [Example 23] | 100 | ≥ 50 | ≥ 75 |
| COc1nc(Oc2ccccc2F)ncc1N1CCC(=O)NC1=O [Example 47] | 87 | ≥ 75 | – |
| Cc1cc(C)cc(Oc2ncc(N3CCC(=O)NC3=O)cn2)c1 [Example 37] | 77 | – | – |
| O=C1CCN(c2cnc(Oc3ccc(Cl)cc3)nc2)C(=O)N1 [Example 40] | 81 | – | – |
| CC1CC(=O)NC(=O)N1c1cnc(Oc2ccccc2)nc1 (centres unmarked) [Example 16] | 100 | ≥ 75 | – |
| O=C1CCN(c2cnc(Oc3cccc(-c4ccccc4)c3)nc2)C(=O)N1 [Example 45] | 92 | ≥ 50 | – |
| Cc1cccc(Oc2ncc(N3CCC(=O)NC3=O)cn2)c1 [Example 22] | 100 | ≥ 75 | ≥ 75 |
| COc1nc(Oc2ccccc2)ncc1N1CCC(=O)NC1=O [Example 18] | 100 | ≥ 75 | – |
| O=C1CCN(c2cnc(Oc3cccc(F)c3)nc2)C(=O)N1 [Example 3, 1-[2-(3-Fluorophenoxy)pyrimidin-5-yl]-5,6-dihydropyrimidine-2,4(1H,3H)-dione] | 100 | ≥ 75 | ≥ 75 |
| O=C1CCN(c2cnc(Oc3cccc(Cl)c3)nc2)C(=O)N1 [Example 26] | 100 | ≥ 75 | ≥ 50 |
| Cc1c(F)cccc1Oc1ncc(N2CCC(=O)NC2=O)cn1 [Example 6, 1-[2-(3-Fluoro-2-methylphenoxy)pyrimidin-5-yl]-5,6-dihydropyrimidine-2,4(1H,3H)-dione] | 89 | ≥ 50 | – |
| O=C1CCN(c2cnc(Oc3ccc(F)c(F)c3)nc2)C(=O)N1 [Example 15] | 83 | – | – |
| O=c1ccn(-c2cnc(Oc3ccccc3)nc2)c(=O)[nH]1 [Example 4, 1-(2-Phenoxypyrimidin-5-yl)pyrimidine-2,4(1H,3H)-dione] | 100 | ≥ 50 | ≥ 75 |
| O=C1CCN(c2cnc(Sc3cccc(F)c3)nc2)C(=O)N1 [Example 31] | 79 | ≥ 75 | – |
| O=C1CCN(c2cnc(Oc3cccc(Br)c3)nc2)C(=O)N1 [Example 44] | 85 | – | ≥ 50 |
| C[Si](C)(C)c1cccc(Oc2ncc(N3CCC(=O)NC3=O)cn2)c1 [Example 56] | 82 | – | ≥ 50 |
| O=C1CCN(c2cnc(Oc3ccc(F)cc3)nc2)C(=O)N1 [Example 11] | 97 | ≥ 50 | ≥ 75 |
